Results on six molecules are retold here after patent US20250319068A1, “TREATMENT OF DISEASES VIA ADMINISTRATION OF BUNTANETAP AND AN […] AGENT” (ANNOVIS BIO, INC., priority 2024, published 2025).

Molecules are shown by their SMILES. “Also recorded” adds a separate entry of the source. Where two headings read alike, the source gives them in different places.

The test system of data set [1] is tau. The following applies: unpublished observation, Peter Davies Laboratory; cited from earlier work.
Data set [2] relates to human SNCAA53T tg mouse model of PD. To be noted: cited from earlier work.
The conditions of data set [3]: cited from earlier work.
The subject of data set [4] is early AD patients and early PD patients. The following applies: cited from earlier work.
Data set [5] relates to tau. The following applies: Human tau mice; unpublished observation; cited from earlier work.
Data set [6] has as its system APP. Briefly: APP in vitro, Western blot in SH-SY-5Y cells (FIG. 1). To be noted: SH-SY-5Y human neuroblastoma cells; 0, 0.1, 1, 5 and 10 μM. The class given is cell-based. Background: Immunoblotting shows a protein as a band on a membrane.
The subject of data set [7] is APP and its fragments. To be noted: APP/PS1 transgenic mice; cited from earlier work.
The subject of data set [8] is APP and its fragments. The data set can be described thus: APP in vivo in APP/PS1 transgenic AD mice, hippocampus (FIG. 2A). More on the design: species or system mouse. The text has this: FIG. 2A is a Table, collection of graphs and a Western blot showing that buntanetap treatment of APP/PS1 transgenic AD mice reduced APP and its fragments in hippocampus.
FIG. 2A, APP in vivo. […] GAPDH and Synaptophysin were loading controls. FIG. 2 also includes a collection of graphs showing relative density of APP plotted against control and time after buntanetap treatment; relative density of CTFβ plotted against control and time after buntanetap treatment; relative density of CTFα plotted against control and time after buntanetap treatment; Aβ42 levels in brain tissue plotted against control and time after buntanetap treatment; and Aβ40 levels in brain tissue plotted against control and time after buntanetap treatment. Finally, FIG. 2 also includes a Western blot showing levels of APP, NSB, CTFβ, and CTFα after buntanetap treatment over time (minutes).

Data set [9] deals with fully differentiated Down syndrome nerve cells. The following applies: cited from earlier work.
In data set [10] the test system is αSYN. The following applies: neuroblastoma cells; cited from earlier work.
Data set [11] is described as follows: Phase 1 single and multiple ascending dose safety, tolerance, pharmacokinetic studies. To be noted: pharmacokinetic analyses of Phase I studies.
Experimental: This publication reported the results of a Phase 2a Clinical Study which was a double-blind, placebo-controlled, multi-center study of 14 early AD patients and 54 early PD patients. AD patients were given either 80 mg buntanetap or placebo QD. PD patients were given 5 mg, 10 mg, 20 mg, 40 mg, 80 mg buntanetap or placebo QD. The primary endpoint was safety and tolerability; secondary endpoint is pharmacokinetics of buntanetap in plasma.
The double phase 2 clinical trial recruited 14 AD (Alzheimer's disease) and 54 patients and treated them over 25 with a once daily dose of buntanetap. The 14 AD patients receive either 80 mg QD or placebo, whereas the 54 PD (Parkinson's disease) patients received 5, 10 20, 40 80 mg QD or placebo.
The test system of another data set is Huntingtin Protein. The following applies: through Translational Suppression; cited from earlier work.
For data set [12], the system named is CSF levels of sAPPα, sAPPβ, Aβ42, Tau (total and phosphorylated), alpha-synuclein and inflammatory markers. The data set can be described thus: Study of MCI subjects: CSF biomarkers before and after 10 days of buntanetap. To be noted: before and after 10 days of administration.
Text: FIG. 3 is a study of subjects with mild cognitive impairment (MCI) for early proof of mechanism (POM) using a well-tolerated dose of buntanetap. Before and after 10 days of buntanetap administration to the MCI subjects, plasma, and cerebrospinal fluid (CSF) samples were obtained for analysis of levels of secreted(s) APPα and APPβ, and Aβ42, Tau (total and phosphorylated), and inflammatory markers.
The test system is the same in data set [13]. To be noted: cited from earlier work.
Data set [14] has as its system traumatic brain injury rats. To be noted: cited from earlier work.
For data set [15], the system named is Ts65dn mouse model of Down Syndrome (DS). The following applies: cited from earlier work.
Another data set concerns rat acute glaucoma model. To be noted: cited from earlier work.
Data set [16] relates to APP/PS1 transgenic (tg) mouse model of AD. To be noted: cited from earlier work.
In data set [17] the test system is patients with mild to moderate AD. Briefly: Phase II/III trial in mild to moderate AD, 12 weeks (NCT05686044). The class given is in vivo, human. Here is the method:
A randomized, double-blind, placebo-controlled Phase II/III study trial investigating the efficacy, safety, and tolerability of buntanetap in patients with mild to moderate AD was conducted. This was a dose-ranging study where patients received either one of three doses of buntanetap (7.5 mg, 15 mg, or 30 mg) or placebo on top of their standard of care for 12 weeks. In this study, over 700 patients were screened, a total of 353 patients were enrolled, and 325 patients completed the study across 54 sites in the US. The study included mild to moderate AD patients whose Mini Mental State Examination (MMSE) scores at baseline ranged from 14 to 24. (www.clinicaltrials.gov (NCT05686044)).
Beyond safety, the trial assessed the changes in two co-primary endpoints: Alzheimer's Disease Assessment Scale-Cognitive Subscale 11 (ADAS-Cog 11) and Alzheimer's Disease Cooperative Study Clinician's Global Impression of Change (ADCS-CGIC), which assess cognition and activities of daily living. The study monitored for safety and collected plasma to measure several biomarkers to assess the disease state, potential disease progression, and treatment effects.
The treatment response in the current study was not related to a patient's age or sex.
EOT-End of Treatment *P<0.05; **P<0.01; ***P<0.001.
When the baseline MMSE scores for patients positive for AD according to their pTau217/tTau >4.2% ratio were subdivided, a dose-dependent relationship to MMSE at baseline was observed. It was concluded that the response to buntanetap treatment is more pronounced in mild AD patients than in those with more advanced AD. The response in the 30 mg dose treatment group R2=0.17 (R^2 or the coefficient of determination), p <0.001, indicates statistical significance of the MMSE score, which was not evident in the placebo group.

For data set [18], the system named is APP. To be noted: neuroblastoma cells; cited from earlier work.
The test system of data set [19] is αSYN. The following applies: transgenic Parkinson's animals; cited from earlier work.
Data set [20] relates to dementia with Lewy bodies (DLB) in men. The following applies: cited from earlier work; for risk of DLB lower compared to 5ARIs / risk of DLB lower compared to tamsulosin: terazosin, doxazosin, or alfuzosin pooled.
The conditions of data set [21]: clinical studies; cited from earlier work.
Setting [22] is: men newly started on terazosin, doxazosin, or alfuzosin (pooled) vs matched men taking tamsulosin.

As for `CN1CC[C@]2(C)c3cc(OC(=O)Nc4ccccc4)ccc3N(C)C12` (stereo partly drawn) [Buntanetap, (3aR)-1,3a,8-trimethyl-1,2,3,3a,8,8a-hexahydropyrrolo[2,3-b]indol-5-yl phenylcarbamate], in the data set with tau [1], the tau in vitro result was “lowers tau”. In data set [2], the colonic motility entry is recorded as “Restored colonic motility”. Further, the tolerability entry in data set [3] (healthy human volunteers, doses up to 4×60 mg daily X 10 days) is listed as “well tolerated”. Besides, the terminal half-life in [3] (plasma, cleared biphasically) is 4.3 to 4.7 h. Also, in [4] (AD and PD cohorts), the “axonal integrity and synaptic function” value is on record as “improving; also recorded: improved”; the “inflammatory factors / markers” value is reported as “trend in lowering levels; also recorded: reduced”; the neurotoxic protein biomarkers entry was “trend in lowering levels; also recorded: reduced”. Besides, the safety and tolerability result in data set [4] (AD and PD patients, doses up to 80 mg) is “well tolerated; also recorded: safe and promising”. The “crossing of the blood brain barrier” value in data set [4] (AD and PD patients) is “crossed the blood brain barrier”. Moreover, the “ADAS-Cog11 and WAIS coding (cognition)” value in [4] (AD patients, 80 mg QD) is listed as “statistically significant improvements; also recorded: improved cognition”. The “motor function as measured by MDS-UPDRS (Part II, III, IV and total)” value in [4] (PD patients, 5-80 mg QD, maximum improvement for 10 & 20 mg) is “improved at all doses motor function”. In data set [4] (PD patients), the “MDS-UPDRS and WAIS coding” value is “statistically significant improvements”; the “WAIS speed and accuracy” value was “improved”. For the same molecule, the “Cmax and AUC” value in data set [4] (plasma, up to 80 mg QD) was “increased with dose without evidence for a plateau”. The tau in vivo result in the data set with tau [5] is on record as “lowers tau”. Moreover, in the data set with APP [6], the “APP in relation to Actin standard (Western blot)” value was “lowers APP in vitro in a dose-dependent manner”. In the data set on APP and its fragments [7], the “levels of APP and all its fragments” value was “lowers levels of APP and all its fragments”. Further, the “duration of reduction of APP and all related peptides in hippocampus after the last dose” value in the data set on APP and its fragments [8] (APP/PS1 mice) is “at least 9 hours”. The “APP and its fragments in hippocampus” value with APP and its fragments [8] (APP/PS1 transgenic AD mice) is “reduced”. In addition, the “anterograde and retrograde vesicle transport” value in data set [9] was “Normalized anterograde and retrograde vesicle transport”. In the data set on αSYN [10], the αSYN in vitro result is “lowers αSYN”. In addition, in [11], the “brain concentration relative to plasma” value is “about 8 times”. Besides, the “levels of Huntingtin Protein” value in the data set on Huntingtin Protein is “reduced the levels of Huntingtin Protein”. Further, the “APP/Aβ, tau/phosphor-tau and alpha-synuclein in the spinal fluid (FIG. 3)” value in data set [12] is “normalized”. In addition, the “duration of effect in lowering neurotoxic proteins and inflammation after the last dose” value in data set [13] (CSF sampling period after the last dose) is recorded as at least 12 h. Further, the “levels of APP, Tau, and αSYN in the cerebrospinal fluid (CSF)” value in data set [13] (MCI subjects, 4×60 mg/day) is recorded as “normalized”. In data set [13] (MCI subjects), the “half-life in CSF” value is recorded as over 12 h and the “inflammation in human CSF” value is “lowered inflammation”. Besides, in data set [13] (five MCI subjects), the “CSF Aβ42” value was “trend to lower”; the “CSF levels of sAPPα, sAPPβ, t-tau, p-tau, and specific inflammatory markers” value was “significantly lowered”. In addition, in data set [14] (after TBI), the “inflammation in the rat brain” value is recorded as “lowered inflammation” and the “nerve cell protection in rat substantia Ingra” value is reported as “protected nerve cells”. The “synaptic transmission in rat striatum” value in data set [14] (after traumatic brain injury (TBI)) was “Normalized impaired synaptic transmission”. The memory and learning entry in [14] (traumatic brain injury rats) is “Preserved memory and learning”. The memory and learning result in [15] is “Restored memory and learning”. Also, the retina result with rat acute glaucoma model (acute glaucoma) is reported as “Preserved the retina”. For the same molecule, the nerve cell protection result in the data set with rat acute glaucoma model (rat acute glaucoma model) is listed as “protected nerve cells”. Further, the “synaptic transmission in hippocampus” value in data set [16] (APP/PS1 tg mice) is “Normalized impaired synaptic transmission”. Also, in [16] (APP/PS1 tg mouse model of AD), the memory and learning result is “Restored memory and learning”. In data set [17] (7.5 mg), the “Non-Responders (Number)” value was 5, the “Non-Responders (Percentage)” value is “(26.32%)”, the “Responders (Number)” value was 14 and the “Responders (Percentage)” value is listed as “(73.68%)**”. Further, in data set [17] (15 mg), the “Non-Responders (Number)” value worked out at 7, the “Non-Responders (Percentage)” value is recorded as “(28.00%)”, the “Responders (Number)” value is on record as 18 and the “Responders (Percentage)” value was “(72.00%)**”. Besides, in data set [17] (30 mg), the “Non-Responders (Number)” value was 3, the “Non-Responders (Percentage)” value was “(12.50%)”, the “Responders (Number)” value came to 21 and the “Responders (Percentage)” value is “(87.50%)***”. For the same molecule, the “difference in the proportion of participants who improved relative to placebo” value in [17] (30 mg group) is given as “three-fold difference”. The “ADAS-Cog 11 scores relative to placebo” value in data set [17] (patients with mild AD, each treatment dose) is recorded as “significantly higher improvement”. Also, in the data set with APP [18], the “levels of APP in vitro” value is “lowers levels of APP”. Also, the “αSYN in vivo in the brain and in the gut” value with αSYN [19] is listed as “lowers αSYN”.

As to `COc1cc2nc(N(C)CCCNC(=O)C3CCCO3)nc(N)c2cc1OC` (stereo not drawn) [alfuzosin], the “hazard ratio [HR] of developing DLB” value in [20] (setting [22]) is listed as 0.60. Also, in [20], the “risk of DLB lower compared to 5ARIs” value is recorded as 37% and the “risk of DLB lower compared to tamsulosin” value was 40%. The “hazard ratio [HR] of developing DLB” value in [20] (vs matched men taking 5ARI) is 0.73.

Regarding `COc1cc2nc(N3CCN(C(=O)C4COc5ccccc5O4)CC3)nc(N)c2cc1OC` (stereo not drawn) [doxazosin], the figures for the “hazard ratio [HR] of developing DLB” value in data set [20] (setting [22]) and in data set [20] (vs matched men taking 5ARI) were 0.60 and 0.73, respectively. Further, the “risk of DLB lower compared to 5ARIs” value in data set [20] was 37%. Also, the “risk of DLB lower compared to tamsulosin” value in [20] was 40%.

With `CN1CC[C@@]2(C)c3cc(OC(=O)Nc4ccccc4)ccc3N(C)[C@@H]12` [phenserine, (−)-N-phenylcarbamoyl eseroline], in data set [21], the side effects entry is listed as “high cholinomimetic side effects”.

Turning to `CCOc1ccccc1OCCN[C@H](C)Cc1ccc(OC)c(S(N)(=O)=O)c1` [tamsulosin], in [20] (vs matched men taking 5ARI), the “hazard ratio [HR] of developing DLB” value is recorded as 1.17.

As to `COc1cc2nc(N3CCN(C(=O)C4CCCO4)CC3)nc(N)c2cc1OC` (stereo not drawn) [terazosin], the “hazard ratio [HR] of developing DLB” value in [20] (setting [22]) is listed as 0.60. For the same molecule, in data set [20], the “risk of DLB lower compared to 5ARIs” value is recorded as 37% and the “risk of DLB lower compared to tamsulosin” value is 40%. Besides, the “hazard ratio [HR] of developing DLB” value in [20] (vs matched men taking 5ARI) is reported as 0.73.
